Experimental findings from patent US11512097B2, “Heterocyclic compounds as Delta-5 desaturase inhibitors and methods of use” (Amgen Inc., priority 2019, dated 2022) are described below.

This assay has as its target T1, Delta-5-Desaturase (D5D), membrane preparations of D5D-overexpressing HEK293 6E cells (Homo sapiens, UniProt O60427).
T1 construct: expressed in transfected cells; host or cells: HEK293 6E cells (membrane preparation)
Kind of assay: In vitro measurement of Delta-5-Desaturase inhibitory activity using DGLA-CoA and Arachidonyl-CoA mass spectrometric assays. In kind it is biochemical. As to conditions: D5D membrane 10 μg/mL, one-hour incubation, average of at least two independent runs. In outline:
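Substrate mix (0.01 mM DGLA with NADH, ATP, coenzyme A) was incubated 1 h at room temperature with HEK293 6E D5D membranes at 10 μg/mL final, pH 7.5. Negative-mode SPE-MS/MS monitored DGLA-CoA (m/z 526.6) and arachidonyl-CoA (m/z 525.6). Inhibition normalised to DMSO and no-enzyme wells gave IC50s, mean of ≥2 runs.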

T1 sequence (O60427 whole entry, species assumed): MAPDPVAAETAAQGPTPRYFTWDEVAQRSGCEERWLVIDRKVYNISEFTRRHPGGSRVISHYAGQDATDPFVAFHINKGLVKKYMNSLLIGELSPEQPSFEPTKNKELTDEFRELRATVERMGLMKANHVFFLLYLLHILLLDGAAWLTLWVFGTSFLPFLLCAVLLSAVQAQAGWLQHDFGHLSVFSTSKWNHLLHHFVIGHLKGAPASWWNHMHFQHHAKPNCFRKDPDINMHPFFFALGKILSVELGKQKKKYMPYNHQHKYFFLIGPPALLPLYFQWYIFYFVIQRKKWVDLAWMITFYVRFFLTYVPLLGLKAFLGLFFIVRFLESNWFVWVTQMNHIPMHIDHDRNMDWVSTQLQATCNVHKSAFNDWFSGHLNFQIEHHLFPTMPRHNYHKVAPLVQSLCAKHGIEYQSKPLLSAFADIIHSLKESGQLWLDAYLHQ

Regarding `Cc1nn2c(=O)c(-c3cnn(CC(F)(F)C(F)(F)F)c3)c(C(F)(F)F)nc2s1` [Example 2, 2-methyl-6-[1-(2,2,3,3,3-pentafluoropropyl)-1H-pyrazol-4-yl]-7-(trifluoromethyl)-5H-[1,3,4]thiadiazolo[3,2-a]pyrimidin-5-one], it took 19.6 nM to reach half-maximal inhibition (IC50).

What is called IC50 is the concentration at which inhibition is half-maximal. A higher IC50 goes with a need for much substance.
